# Test results from patent US8883718B2, “Treating cancer” (Theryte Limited, priority 2008, dated 2014).
# [ ]: non-standard residue; d: D form.
# Legend:
# [1] = system: cancer cell; assay: effect of amino acid stereochemistry on cancer cell-killing activity; format: cell-based
# Text: The peptides used were: THR75 (SEQ ID NO: 24, cyc-[PRGPRPValklalklal]); THR77 (SEQ ID NO: 25, cyc-[PRGPRPValklalklaL]); THR78 (SEQ ID NO: 26, cyc-[[…]lklalklaL]; THR79 (SEQ ID NO: 11 cyc-[PRGPRPvalklalklal]). Upper case denotes the L isomer of the amino acids and lower case denotes the D isomer.
# It has also been discovered that the stereochemistry of the amino acids in the peptide sequence is relevant to efficacy. Analogues of THR54 (SEQ ID NO: 10) in which certain L-amino-acids have been replaced with D-amino-acids were prepared.
# This was THR79 in which was approximately 2-4 times as active as THR54.
# [2] = system: Fibroblasts; assay: Cell killing by cyclic peptides, fibroblasts (Table 2); format: cell-based; design: key: - - - = No cell killing
# Description: (§1) Table 2 lists cyclic peptides including the PRGPRP (SEQ ID NO:2) sequence which have no effect on RT112 bladder cancer cells at a concentration of 100 μM.
# [3] = system: RT112 bladder cancer cells; assay: Cell killing by cyclic peptides, RT112 (Table 2); format: cell-based, human; design: key: - - - = No cell killing; settings: 100 μM
# Description: as §1
# [4] = system: normal human diploid fibroblasts; assay: MTS cell viability assay, fibroblasts; format: cell-based; settings: 12.5 to 100 μM, 2-4 weeks
# Description: (§2) The effect of these peptides was tested on both human fibroblasts and H460 human non-small cell […] cancer cells at doses in the range 12.5 to 100 μM. The peptides were tested in vitro by exposure to 100 H460 human non-small cell lung cancer cells, or short term cultures of normal human diploid fibroblasts, in 200 ul of Ham's F12 tissue culture medium supplemented with 10% FCS. Cells were set up in 100 ul on day 0 and 24 hours later a further 100 ul of the same medium containing ×2 the appropriate concentration of peptide over a range of 12.5-100 uM was added. The cells were then incubated at 37° C., 5% CO2 in an humidified incubator for 2-4 weeks.
# (§3) Cell viability was measured by an MTS assay (CellTiter 96^R Non-Radioactive Cell Proliferation Assay. Promega Corporation, 2800 Woods Hollow Road, Madison Wis. 53711-5399 USA). The original form of this assay was described by Mosmann (J. Immunol. Meth. 65; 55-63. 1983) and gives a colorometric reading whose intensity depends on the conversion, by viable cells, of a tetrazolium salt into a coloured formazan which is easily quantified by colorimetric reading of a 96 well assay plate.
# [5] = system: Normal diploid human fibroblasts; assay: normal diploid human fibroblasts in short term culture; format: cell-based
# Description: (§4) Normal diploid human fibroblasts in short term culture were unaffected (FIG. 2b). […] However, PRGPRP (SEQ ID NO: 2) is only effective at killing RT112 bladder cancer cells at a concentration of 5.0 mM. Because of concern that such high peptide doses might cause artefactual, non-specific effects, structure/function studies were carried out.
# [6] = system: H460 human non-small cell lung cancer cells; assay: clonogenic assay on H460 cells; format: cell-based
# Description: (§5) The first experiments were carried out on cyc-[[…]] (THR 53, (SEQ ID NO: 9)), see FIG. 4. Whilst the 96 well assays described in Example 3 are suitable for initial screening of small amounts of peptide material the long incubation periods in dense culture do themselves compromise cell viability to some extent. […] In clonogenic assays, (previously described by Warenius et al Br J Cancer (2000) 83(8), 1048-1059) single cell suspensions of 100 cells are plated in plentiful volumes of 2 ml of Ham's F12 tissue culture medium supplemented with 10% FCS and incubated for 15, 20 or 25 days. A high percentage of the plated cells (40-60% in the case of H460) go through repeated doublings to yield colonies of 200 or more cells which can be easily visualized by the naked eye and counted under a low power lens when stained by giemsa stain.
# The efficacy of THR53 was compared to Ac-PRGPRP-NH2 (SEQ ID NO: 2) using a clonogenic assay.
# [7] = system: MGHU-1 Human transitional bladder cancer cells; assay: in-vitro culture of MGHU-1 bladder cancer cells, cell death observed morphologically; format: cell-based
# Description: as §4
# 5 mM was required to produce 100% lethality in in vitro experiments on RT 112 (FIG. 2a) or MGHU-1 human bladder cancer cells. This limits the applicability of PRGPRP (SEQ ID NO: 2) to therapy even though it has selected killing activity in human cancer cells but not normal human fibroblasts.
# [8] = system: Cdk1 compared to Cdk4 in RT112 cells; assay: sequential Western blots of RT112 cells after peptide exposure; format: cell-based, human; settings: over 15 days
# Text: Peptides were introduced at day 0 and left in-situ throughout the experiment.
# In a clinical context this might provide a biomarker of therapeutic efficacy. […] Such a homogeneous therapeutic response is in marked contrast to the wide range of variability in dose response of different cancer cell lines seen with conventional chemotherapeutic agents^24. Cancer cells both underwent successful mitosis and died (FIG. 3f) or died in interphase (FIG. 7d). […] MRC-hTERT fibroblasts (FIG. 7c) and short term cultures of normal diploid human keratinocytes (FIG. 3h) were not killed by 200 μM THR53.
# [9] = system: RT112 human bladder cancer cells; assay: clonogenic assay on RT112 cells; format: cell-based
# Description: as §4, §5
# [10] = system: human cancer cells; assay: clonogenic assays of human cancer cells exposed to PRGPRP motif in cyclic amphiphilic cassettes; format: cell-based; settings: FIG. 6i
# Description: FIGS. 6(h) and (i) show clonogenic assays of human cancer cells exposed to the PRGPRP (SEQ ID NO: 2) motif in cyclic amphiphlic cassettes. THR53 (SEQ ID NO: 9, cyc-[[…]]); THR53C (SEQ ID NO: 23, cyc-[[…]], a control peptide); THR54 (SEQ ID NO: 10, cyc-[[…]]); THR79 (SEQ ID NO: 11, cyc-[PRGPRPvalklalklal]).
# as §5
# The effectiveness of cyclic peptides comprising amphiphilic sequences is further illustrated in FIGS. 6h and 6i, showing the results of a clonogenic assay using the peptides THR53 cyc-[[…]] (SEQ ID NO: 9); THR53C, cyc-[[…]] […]
# [11] = system: MGHU-1 Human transitional bladder cancer cells; settings: cited from earlier work
# [12] = system: H460 human non-small cell lung cancer cells; assay: MTS cell viability assay, H460 cells; format: cell-based; settings: H460, 12.5 to 100 μM, 2-4 weeks
# Description: as §2, §3
substance,measurement,setting,value
cyc-[PRGPRPVALKLALKLAL] (cyclic; Cyclic peptide; /note=“cyclic peptide”) [THR54],cancer cell-killing activity,[1],active
cyc-[PRGPRPValklalklal] (cyclo(PRGPRPV[dA][dL][dK][dL][dA][dL][dK][dL][dA][dL]); SMILES CC(C)C[C@H]1NC(=O)[C@@H](C)NC(=O)[C@H](C(C)C)NC(=O)[C@@H]2CCCN2C(=O)[C@H](CCCNC(=N)N)NC(=O)[C@@H]2CCCN2C(=O)CNC(=O)[C@H](CCCNC(=N)N)NC(=O)[C@@H]2CCCN2C(=O)[C@@H](CC(C)C)NC(=O)[C@@H](C)NC(=O)[C@@H](CC(C)C)NC(=O)[C@@H](CCCCN)NC(=O)[C@@H](CC(C)C)NC(=O)[C@@H](C)NC(=O)[C@@H](CC(C)C)NC(=O)[C@@H](CCCCN)NC1=O) [THR 75],cancer cell-killing activity at 100 uM,[1]; 100 uM concentration,remove the activity
Cyc-[GGGGPRGPRPGGGGPRGPRPVPRGPRPV] (cyclic; Cyclic peptide; /note=“cyclic peptide”),Cell Killing Fibroblasts,[2],- - -
same,Cell Killing RT112,[3],- - -
cyc-[PRGPRPvalklalklal] (cyclo(PRGPRP[dV][dA][dL][dK][dL][dA][dL][dK][dL][dA][dL]); SMILES CC(C)C[C@H]1NC(=O)[C@@H](C)NC(=O)[C@@H](C(C)C)NC(=O)[C@@H]2CCCN2C(=O)[C@H](CCCNC(=N)N)NC(=O)[C@@H]2CCCN2C(=O)CNC(=O)[C@H](CCCNC(=N)N)NC(=O)[C@@H]2CCCN2C(=O)[C@@H](CC(C)C)NC(=O)[C@@H](C)NC(=O)[C@@H](CC(C)C)NC(=O)[C@@H](CCCCN)NC(=O)[C@@H](CC(C)C)NC(=O)[C@@H](C)NC(=O)[C@@H](CC(C)C)NC(=O)[C@@H](CCCCN)NC1=O) [THR79],activity relative to THR54,[1],2-4 times
same,cancer cell-killing activity,[1],showed cancer cell-killing properties
"Ac-PRRPGPVKLALKLALKAL-NH2 [THR51C, control for THR51 in which one arginine was switched with a glycine, reference compound]","killing of fibroblasts (cell viability, MTS)",[4],non-specific killing
Cyc-[AAAGGGPRGPRPGGGAAA] (cyclic; Cyclic peptide; /note=“cyclic peptide”),Cell Killing Fibroblasts,[2],- - -
same,Cell Killing RT112,[3],- - -
Ac-Pro-Arg-Gly-Pro-Arg-Pro-NH2 (Ac-PRGPRP-NH2) [end-capped hexameric peptide according to WO2005/123760],effect on normal diploid human fibroblasts in short term culture,[5]; 5.0 mM,unaffected
same,effect on H460 cell survival in clonogenic assay,[6]; 1 to 10 mM concentration,limited effect
same,"effect on H460 non-small cell lung cancer, clonogenic assay",[6]; H460,no effect
same,cell death observed morphologically in-vitro,"[7]; 5.0 mM, 25 days after exposure",Complete cell death
same,concentration required to produce 100% lethality,"[7]; MGHU-1, in vitro",5 mM
same,change in Cdk1 compared to Cdk4,[8],Progressive increase
same,cancer cell lethality / activity in clonogenic assay,[9]; RT112,Cancer cell lethality was confirmed
same,concentration effective at killing RT112 bladder cancer cells,[9]; RT112,5.0 mM
same,concentration required to produce 100% lethality,"[9]; RT 112, in vitro",5 mM
Ac-Pro-Arg-Arg-Pro-Gly-Pro-NH2 (Ac-PRRPGP-NH2),change in Cdk1 compared to Cdk4,[8],not seen
same,cancer cell lethality / activity in clonogenic assay,[9]; RT112,inactive
"cyc-[FPPRRPGPVKLALKLALK] (cyclic; Control peptide; /note=“cyclic peptide”) [THR53C, a control peptide]",arginine-related structure function relationship in cyclic amphiphilic compounds (control peptide),[10],structure function relationship was retained
cyc-[PRGPRPVPRGPRPVPRGPRPV] (cyclic; Cyclic peptide; /note=“cyclic peptide”) [cyclic peptide disclosed in WO2005/123760],effect on normal fibroblasts,[5],markedly stimulate
same,effect on MGHU1 cells as disclosed in WO2005/123760,[11],caused morphological changes
same,killing of MGHU1 cells,[7],did not kill
Cyc-[GGGGGGPRGPRPGGGGGG] (cyclic; Cyclic peptide; /note=“cyclic peptide”),Cell Killing Fibroblasts,[2],- - -
same,Cell Killing RT112,[3],- - -
Cyc-[AAGPGGPRGPRPGGPGAA] (cyclic; Cyclic peptide; /note=“cyclic peptide”),Cell Killing Fibroblasts,[2],- - -
same,Cell Killing RT112,[3],- - -
"Ac-PRGPRPVKLALKLALKAL-NH2 [THR51, linear peptide outside the scope of the invention]","killing of fibroblasts (cell viability, MTS)",[4],equally as well killed
same,"cancer cell killing (cell viability, MTS)",[12],improvement in cancer cell killing over PRGPRP
